Measured values from ChEMBL document CHEMBL1909294, “Translating clinical findings into knowledge in drug safety evaluation--drug induced liver injury prediction system (DILIps)” (PLoS Comput Biol, 2011).

Tests used:
[1] = test system: Hepatotoxicity;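 as to HepSE elevated liver function tests: hepatic side effect score for raised liver function tests, as recorded in the DILIps training set used for predicting drug-induced liver injury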; as to HepSE hepatic failure: call rule not given here;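 as to HepSE hepatitis: Hepatitis-related hepatic side effect score taken from the training data of DILIps, a prediction system for drug-induced liver injury; call rule not given here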;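 as to HepSE hepatomegaly: hepatic side effect score for hepatomegaly, taken from the training set of the DILIps drug-induced liver injury prediction system; call rule not given here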;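 as to HepSE jaundice: Jaundice-related hepatic side-effect score drawn from the training data of the DILIps (drug-induced liver injury prediction system); call rule not given here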; as to HepSE liver disease: call rule not given here;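 as to HepSE liver fatty: hepatic side effect score for fatty liver, taken from the DILIps training set for predicting drug-induced liver injury; call rule not given here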
[2] = test system: Hepatotoxicity; remark: listed apart in the source;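 as to HepSE elevated liver function tests: hepatic side effect score for raised liver function tests, as recorded in the DILIps training set used for predicting drug-induced liver injury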; as to HepSE hepatic failure: call rule not given here;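 as to HepSE hepatitis: Hepatitis-related hepatic side effect score taken from the training data of DILIps, a prediction system for drug-induced liver injury; call rule not given here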;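 as to HepSE hepatomegaly: hepatic side effect score for hepatomegaly, taken from the training set of the DILIps drug-induced liver injury prediction system; call rule not given here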;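 as to HepSE jaundice: Jaundice-related hepatic side-effect score drawn from the training data of the DILIps (drug-induced liver injury prediction system); call rule not given here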;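 as to HepSE liver fatty: hepatic side effect score for fatty liver, taken from the DILIps training set for predicting drug-induced liver injury; call rule not given here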
[3] = test system: Hepatotoxicity; remark: listed apart in the source;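 as to HepSE elevated liver function tests: hepatic side effect score for raised liver function tests, as recorded in the DILIps training set used for predicting drug-induced liver injury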; as to HepSE hepatic failure: call rule not given here;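 as to HepSE hepatitis: Hepatitis-related hepatic side effect score taken from the training data of DILIps, a prediction system for drug-induced liver injury; call rule not given here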;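 as to HepSE hepatomegaly: hepatic side effect score for hepatomegaly, taken from the training set of the DILIps drug-induced liver injury prediction system; call rule not given here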;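 as to HepSE jaundice: Jaundice-related hepatic side-effect score drawn from the training data of the DILIps (drug-induced liver injury prediction system); call rule not given here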;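 as to HepSE liver fatty: hepatic side effect score for fatty liver, taken from the DILIps training set for predicting drug-induced liver injury; call rule not given here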
[4] = test system: Hepatotoxicity; remark: listed apart in the source;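 as to HepSE elevated liver function tests: hepatic side effect score for raised liver function tests, as recorded in the DILIps training set used for predicting drug-induced liver injury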; as to HepSE hepatic failure: call rule not given here;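 as to HepSE hepatitis: Hepatitis-related hepatic side effect score taken from the training data of DILIps, a prediction system for drug-induced liver injury; call rule not given here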;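 as to HepSE hepatomegaly: hepatic side effect score for hepatomegaly, taken from the training set of the DILIps drug-induced liver injury prediction system; call rule not given here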;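 as to HepSE jaundice: Jaundice-related hepatic side-effect score drawn from the training data of the DILIps (drug-induced liver injury prediction system); call rule not given here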;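 as to HepSE liver fatty: hepatic side effect score for fatty liver, taken from the DILIps training set for predicting drug-induced liver injury; call rule not given here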
[5] = test system: Hepatotoxicity; remark: listed apart in the source; as to HepSE hepatic failure: call rule not given here
[6] = test system: Hepatotoxicity; remark: listed apart in the source; as to HepSE hepatic failure: call rule not given here
[7] = test system: Hepatotoxicity; remark: listed apart in the source
[8] = test system: Hepatotoxicity; remark: listed apart in the source
[9] = test system: Hepatotoxicity; remark: listed apart in the source
[10] = test system: Hepatotoxicity; remark: listed apart in the source
[11] = test system: Hepatotoxicity; remark: listed apart in the source
[12] = test system: Hepatotoxicity; remark: listed apart in the source
[13] = test system: Hepatotoxicity; remark: listed apart in the source
[14] = test system: Hepatotoxicity; remark: listed apart in the source

Structure (SMILES) | HepSE_hepatitis [1] | HepSE_hepatic failure [2] | HepSE_bilirubinemia [3] | HepSE_hepatomegaly [4] | HepSE_jaundice [5] | HepSE_liver fatty [6] | HepSE_elevated liver function tests [7] | HepSE_liver disease [8] | HepSE_Combined Scores [9] | HepSE_hepatic necrosis [10] | HepSE_cholecystitis [11] | HepSE_liver function tests abnormal [12] | HepSE_cirrhosis [13] | HepSE_cholelithiasis [14] | other results
C[C@H](CCC(=O)O)[C@H]1CC[C@H]2[C@@H]3[C@@H](O)C[C@@H]4C[C@H](O)CC[C@]4(C)[C@H]3CC[C@]12C [URSODIOL] | 0 | 0 | 0 | 0 | 0 | 0 | 0 | 0 | 1 | 0 | 1 | 0 | 0 | 0 | 
CCN(CC)CCNC(=O)c1ccc(N)cc1 [PROCAINAMIDE] | 0 | 1 | 0 | 1 | 0 | 0 | 0 | 0 | 2 | 0 | 0 | 0 | 0 | 0 | 
CC(C)Cc1ccc(C(C)C(=O)O)cc1 (stereo unspecified) [IBUPROFEN] | 1 | 1 | 0 | 0 | 1 | 0 | 0 | 0 | 5 | 1 | 0 | 1 | 0 | 0 | 
CO[C@H]1/C=C/O[C@@]2(C)Oc3c(C)c(O)c4c(O)c(c(/C=N/N5CCN(C6CCCC6)CC5)c(O)c4c3C2=O)NC(=O)/C(C)=C\C=C\[C@H](C)[C@H](O)[C@@H](C)[C@@H](O)[C@@H](C)[C@H](OC(C)=O)[C@@H]1C [RIFAPENTINE] | 1 | 0 | 1 | 0 | 0 | 0 | 0 | 0 | 2 | 0 | 0 | 0 | 0 | 0 | 
CC(CCc1ccc(O)cc1)NCCc1ccc(O)c(O)c1 (stereo unspecified) [DOBUTAMINE] | 0 | 0 | 0 | 0 | 0 | 0 | 0 | 0 | 0 | 0 | 0 | 0 | 0 | 0 | 
Clc1ccc2nsnc2c1NC1=NCCN1 [TIZANIDINE] |  |  |  |  |  |  |  |  |  |  |  |  |  |  | HepSE_hepatitis ([1]; Liver): 1; HepSE_hepatic failure ([2]; Liver): 1; HepSE_bilirubinemia ([3]; Liver): 0; HepSE_hepatomegaly ([4]; Liver): 0; HepSE_jaundice ([5]; Liver): 1; HepSE_liver fatty ([6]; Liver): 0; HepSE_elevated liver function tests ([7]; Liver): 0; HepSE_liver disease ([8]; Liver): 1; HepSE_Combined Scores ([9]; Liver): 8; HepSE_hepatic necrosis ([10]; Liver): 1; HepSE_cholecystitis ([11]; Liver): 0; HepSE_liver function tests abnormal ([12]; Liver): 1; HepSE_cirrhosis ([13]; Liver): 1; HepSE_cholelithiasis ([14]; Liver): 1
CC(C)[C@H]1CC[C@H](C(=O)N[C@H](Cc2ccccc2)C(=O)O)CC1 [NATEGLINIDE] | 1 | 0 | 0 | 0 | 1 | 0 | 0 | 1 | 3 | 0 | 0 | 0 | 0 | 0 | 
CO/N=C(\C(=O)N[C@@H]1C(=O)N2C(C(=O)O)=C(COC(C)=O)CS[C@H]12)c1csc(N)n1 [CEFOTAXIME] | 1 | 0 | 0 | 0 | 1 | 0 | 0 | 0 | 2 | 0 | 0 | 0 | 0 | 0 | 
CC(=O)O.CCNC(=O)[C@@H]1CCCN1C(=O)[C@H](CCCNC(=N)N)NC(=O)[C@H](CC(C)C)NC(=O)[C@@H](CC(C)C)NC(=O)[C@H](Cc1ccc(O)cc1)NC(=O)[C@H](CO)NC(=O)[C@H](Cc1c[nH]c2ccccc12)NC(=O)[C@H](Cc1c[nH]cn1)NC(=O)[C@@H]1CCC(=O)N1 [LEUPROLIDE ACETATE] | 0 | 0 | 0 | 1 | 0 | 0 | 0 | 0 | 2 | 0 | 0 | 1 | 0 | 0 | 
